Laboratory results as given in ChEMBL document CHEMBL1833846 (Bioorg Med Chem Lett, 2011).

Experiments:
[1] = target: Histone deacetylase; assay: Inhibition of human HDAC in HeLa cells after 30 mins by Fluor de Lys fluorescence assay; type: cell-based
[2] = target: T1, Histone deacetylase 1 (Homo sapiens, UniProt Q13547); assay: Inhibition of HDAC1 after 30 mins by Fluor de Lys fluorescence assay
[3] = target: T2, Histone deacetylase 3 (Homo sapiens, UniProt O15379); assay: Inhibition of HDAC3 after 30 mins by Fluor de Lys fluorescence assay
[4] = target: T3, Protein deacetylase HDAC6 (Homo sapiens, UniProt Q9UBN7); assay: Inhibition of HDAC6 after 30 mins by Fluor de Lys fluorescence assay
T3 sequence (Q9UBN7 whole entry): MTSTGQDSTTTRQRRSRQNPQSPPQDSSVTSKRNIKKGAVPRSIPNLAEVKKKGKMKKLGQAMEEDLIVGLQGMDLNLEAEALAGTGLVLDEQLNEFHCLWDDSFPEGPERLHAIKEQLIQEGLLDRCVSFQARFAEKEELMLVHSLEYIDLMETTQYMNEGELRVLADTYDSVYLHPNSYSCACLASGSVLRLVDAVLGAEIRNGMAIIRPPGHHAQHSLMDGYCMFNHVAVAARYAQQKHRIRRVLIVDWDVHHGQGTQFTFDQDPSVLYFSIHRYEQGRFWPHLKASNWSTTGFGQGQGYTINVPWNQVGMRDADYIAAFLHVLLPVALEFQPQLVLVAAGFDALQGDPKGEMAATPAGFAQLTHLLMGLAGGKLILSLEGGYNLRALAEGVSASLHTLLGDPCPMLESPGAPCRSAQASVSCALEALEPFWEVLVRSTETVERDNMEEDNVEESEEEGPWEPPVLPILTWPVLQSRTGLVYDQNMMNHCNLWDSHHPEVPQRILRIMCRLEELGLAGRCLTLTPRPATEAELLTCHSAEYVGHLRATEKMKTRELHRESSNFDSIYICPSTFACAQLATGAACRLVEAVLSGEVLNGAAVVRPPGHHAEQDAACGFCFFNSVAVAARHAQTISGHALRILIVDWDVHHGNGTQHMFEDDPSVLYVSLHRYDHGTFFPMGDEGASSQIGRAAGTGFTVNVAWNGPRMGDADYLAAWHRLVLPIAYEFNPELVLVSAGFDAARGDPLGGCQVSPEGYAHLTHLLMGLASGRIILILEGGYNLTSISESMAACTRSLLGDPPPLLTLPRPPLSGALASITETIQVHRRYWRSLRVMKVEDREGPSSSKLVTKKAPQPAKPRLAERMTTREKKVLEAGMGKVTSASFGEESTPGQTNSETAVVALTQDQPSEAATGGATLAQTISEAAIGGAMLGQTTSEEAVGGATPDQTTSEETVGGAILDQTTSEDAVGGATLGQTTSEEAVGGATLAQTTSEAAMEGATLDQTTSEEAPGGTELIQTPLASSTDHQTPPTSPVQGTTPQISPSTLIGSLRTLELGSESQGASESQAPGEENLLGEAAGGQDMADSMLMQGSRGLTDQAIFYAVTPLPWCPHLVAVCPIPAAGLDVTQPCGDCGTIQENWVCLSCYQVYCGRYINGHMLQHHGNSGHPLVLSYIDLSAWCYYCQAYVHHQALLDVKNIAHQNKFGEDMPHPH

[5] = target: T1, Histone deacetylase 1; assay: Inhibition of HDAC1 assessed as residual activity at 32 uM after 30 mins by Fluor de Lys fluorescence assay
[6] = target: T2, Histone deacetylase 3; assay: Inhibition of HDAC3 assessed as residual activity at 32 uM after 30 mins by Fluor de Lys fluorescence assay
[7] = target: T4, Protein deacetylase HDAC6 (Homo sapiens) (UniProt Q9UBN7); assay: Inhibition of HDAC6 assessed as residual activity at 32 uM after 30 mins by Fluor de Lys fluorescence assay
T4 sequence (whole entry): T3 sequence (Q9UBN7 whole entry)

[8] = Selectivity ratio of IC50 for HDAC3 to IC50 for HDAC6
[9] = Selectivity ratio of IC50 for HDAC1 to IC50 for HDAC6
[10] = Selectivity ratio of IC50 for HDAC3 to IC50 for HDAC1
[11] = target: T1, Histone deacetylase 1; settings: 375 nM
[12] = target: T2, Histone deacetylase 3; settings: 375 nM
[13] = target: T4, Protein deacetylase HDAC6 (Homo sapiens); settings: 375 nM

T1 sequence (Q13547 whole entry): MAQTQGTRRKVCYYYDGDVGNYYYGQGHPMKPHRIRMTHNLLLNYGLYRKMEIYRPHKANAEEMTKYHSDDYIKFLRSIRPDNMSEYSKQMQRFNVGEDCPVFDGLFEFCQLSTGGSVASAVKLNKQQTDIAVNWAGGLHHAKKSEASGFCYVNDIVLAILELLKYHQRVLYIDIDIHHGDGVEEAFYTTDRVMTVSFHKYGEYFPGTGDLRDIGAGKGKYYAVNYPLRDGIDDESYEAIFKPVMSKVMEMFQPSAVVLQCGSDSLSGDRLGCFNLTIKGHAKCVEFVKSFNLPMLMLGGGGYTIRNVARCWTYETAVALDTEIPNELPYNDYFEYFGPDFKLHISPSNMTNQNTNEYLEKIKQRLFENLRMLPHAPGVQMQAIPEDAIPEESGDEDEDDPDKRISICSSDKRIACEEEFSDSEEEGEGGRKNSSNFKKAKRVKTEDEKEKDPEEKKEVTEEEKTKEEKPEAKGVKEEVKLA
T2 sequence (O15379 whole entry): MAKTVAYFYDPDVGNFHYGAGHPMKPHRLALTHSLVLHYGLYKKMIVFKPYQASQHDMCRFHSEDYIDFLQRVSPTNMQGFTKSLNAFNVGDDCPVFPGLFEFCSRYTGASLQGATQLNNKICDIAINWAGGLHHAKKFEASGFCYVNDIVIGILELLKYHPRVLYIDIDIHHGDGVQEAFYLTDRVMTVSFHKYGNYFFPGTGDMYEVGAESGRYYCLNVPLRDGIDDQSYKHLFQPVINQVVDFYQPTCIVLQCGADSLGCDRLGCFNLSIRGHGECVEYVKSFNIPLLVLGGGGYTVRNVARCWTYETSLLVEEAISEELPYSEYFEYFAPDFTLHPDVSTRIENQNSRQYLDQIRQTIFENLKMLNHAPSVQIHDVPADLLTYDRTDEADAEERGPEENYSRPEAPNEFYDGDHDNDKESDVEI

SMILES	IC50 [1]	Activity [5]	Activity [6]	Activity [7]	Ratio IC50 [9]	other results
CCC(CCCCC(=O)Nc1ccccc1)CC(=O)NO (configuration not stated)	32 µM	39%	83%	18%	3	IC50 [2]: 22 µM; IC50 [3]: 97 µM; IC50 [4]: 8 µM; Ratio IC50 [8]: 12; Ratio IC50 [10]: 4
O=C(CC(CCCCC(=O)Nc1ccccc1)c1ccccc1)NO (configuration not stated)	73 µM	45%	50%	25%		
C=CC(CCCCC(=O)Nc1ccccc1)CC(=O)NO (configuration not stated)	15 µM	24%	47%	27%		
CCCCC(CCCCC(=O)Nc1ccccc1)CC(=O)NO (configuration not stated)	184 µM	33%	51%	24%		
O=C(CCCCCCC(=O)Nc1ccc([C@H]2O[C@@H](CSc3nc(-c4ccccc4)c(-c4ccccc4)o3)C[C@@H](c3ccc(CO)cc3)O2)cc1)NO					7	
CC(CCCCC(=O)Nc1ccccc1)CC(=O)NO (configuration not stated)	0.35 µM					Activity [11]: 46%; Activity [12]: 59%; Activity [13]: 74%
